From US20110039721A1, “METHOD FOR PREDICTION ABOUT CARCINOGENICITY OF SUBSTANCE IN RODENT” (Chemicals Evaluation and Research Institute, priority 2007, published 2011)

Legend:
[1] = system: mRNA expressed from the genes (A) to (D) in rat liver; assay: Behavior of genes (mRNA expression level, oligo-DNA microarray) in rat liver after 28-day oral administration; type: in vivo; conditions: rat liver, oral once daily 28 days; for Behavior of gene caused by administration of chemical substance, Gene No. 4846 / Behavior of gene caused by administration of chemical substance, Gene No. 4218 / Behavior of gene caused by administration of chemical substance, Gene No. 2026 / Behavior of gene caused by administration of chemical substance, Gene No. 6182 / Behavior of gene caused by administration of chemical substance, Gene No. 5600: (A); for Behavior of gene caused by administration of chemical substance, Gene No. 4846: Unigene Rn.144554, defined direction +; for Behavior of gene caused by administration of chemical substance, Gene No. 4218: Unigene Rn.167075, defined direction +, significant = 1.5 times or more or 1/1.5 or less of control; for Behavior of gene caused by administration of chemical substance, Gene No. 2026: Unigene Rn.167075, defined direction −; for Behavior of gene caused by administration of chemical substance, Gene No. 6182: Unigene Rn.5834, defined direction +; for Behavior of gene caused by administration of chemical substance, Gene No. 5600: Unigene Rn.9836, defined direction +; for Behavior of gene caused by administration of chemical substance, Gene No. 1494 / Behavior of gene caused by administration of chemical substance, Gene No. 2045 / Behavior of gene caused by administration of chemical substance, Gene No. 2203: (B); for Behavior of gene caused by administration of chemical substance, Gene No. 1494: Unigene Rn.1430, defined direction −; for Behavior of gene caused by administration of chemical substance, Gene No. 2045: Unigene Rn.19329, defined direction +; for Behavior of gene caused by administration of chemical substance, Gene No. 2203: Unigene Rn.21240, defined direction +; for Behavior of gene caused by administration of chemical substance, Gene No. 533 / Behavior of gene caused by administration of chemical substance, Gene No. 725 / Behavior of gene caused by administration of chemical substance, Gene No. 1163 / Behavior of gene caused by administration of chemical substance, Gene No. 4973 / Behavior of gene caused by administration of chemical substance, Gene No. 4095 / Behavior of gene caused by administration of chemical substance, Gene No. 1334 / Behavior of gene caused by administration of chemical substance, Gene No. 6620 / Behavior of gene caused by administration of chemical substance, Gene No. 6303 / Behavior of gene caused by administration of chemical substance, Gene No. 5878 / Behavior of gene caused by administration of chemical substance, Gene No. 1131 / Behavior of gene caused by administration of chemical substance, Gene No. 1562 / Behavior of gene caused by administration of chemical substance, Gene No. 1741 / Behavior of gene caused by administration of chemical substance, Gene No. 893 / Behavior of gene caused by administration of chemical substance, Gene No. 6026 / Behavior of gene caused by administration of chemical substance, Gene No. 154 / Behavior of gene caused by administration of chemical substance, Gene No. 1993 / Behavior of gene caused by administration of chemical substance, Gene No. 813 / Behavior of gene caused by administration of chemical substance, Gene No. 2494 / Behavior of gene caused by administration of chemical substance, Gene No. 2546 / Behavior of gene caused by administration of chemical substance, Gene No. 3776 / Behavior of gene caused by administration of chemical substance, Gene No. 3929 / Behavior of gene caused by administration of chemical substance, Gene No. 1119 / Behavior of gene caused by administration of chemical substance, Gene No. 6742 / Behavior of gene caused by administration of chemical substance, Gene No. 5634: (C); for Behavior of gene caused by administration of chemical substance, Gene No. 533: Unigene Rn.106184, defined direction +; for Behavior of gene caused by administration of chemical substance, Gene No. 725: Unigene Rn.108075, defined direction −; for Behavior of gene caused by administration of chemical substance, Gene No. 1163: Unigene Rn.11766, defined direction +; for Behavior of gene caused by administration of chemical substance, Gene No. 4973: Unigene Rn.118529, defined direction −; for Behavior of gene caused by administration of chemical substance, Gene No. 4095: Unigene Rn.119024, defined direction −; for Behavior of gene caused by administration of chemical substance, Gene No. 1334 / Behavior of gene caused by administration of chemical substance, Gene No. 6620: Unigene Rn.120914, defined direction +; for Behavior of gene caused by administration of chemical substance, Gene No. 6303: Unigene Rn.123063, defined direction −; for Behavior of gene caused by administration of chemical substance, Gene No. 5878: Unigene Rn.143213, defined direction −; for Behavior of gene caused by administration of chemical substance, Gene No. 1131: Unigene Rn.144946, defined direction −; for Behavior of gene caused by administration of chemical substance, Gene No. 1562: Unigene Rn.14744, defined direction −; for Behavior of gene caused by administration of chemical substance, Gene No. 1741: Unigene Rn.1647, defined direction −; for Behavior of gene caused by administration of chemical substance, Gene No. 893: Unigene Rn.164817, defined direction +; for Behavior of gene caused by administration of chemical substance, Gene No. 6026: Unigene Rn.167685, defined direction −; for Behavior of gene caused by administration of chemical substance, Gene No. 154: Unigene Rn.185941, defined direction −; for Behavior of gene caused by administration of chemical substance, Gene No. 1993: Unigene Rn.18728, defined direction −; for Behavior of gene caused by administration of chemical substance, Gene No. 813: Unigene Rn.201760, defined direction +; for Behavior of gene caused by administration of chemical substance, Gene No. 2494: Unigene Rn.23969, defined direction +; for Behavior of gene caused by administration of chemical substance, Gene No. 2546: Unigene Rn.24561, defined direction −; for Behavior of gene caused by administration of chemical substance, Gene No. 3776: Unigene Rn.43232, defined direction −; for Behavior of gene caused by administration of chemical substance, Gene No. 3929: Unigene Rn.4620, defined direction +; for Behavior of gene caused by administration of chemical substance, Gene No. 1119: Unigene Rn.9757, defined direction +; for Behavior of gene caused by administration of chemical substance, Gene No. 6742: Unigene Rn.9779, defined direction +; for Behavior of gene caused by administration of chemical substance, Gene No. 5634: Unigene Rn.9862, defined direction −; for Behavior of gene caused by administration of chemical substance, Gene No. 5726: (D), Unigene Rn.9939, defined direction −
Procedure, shortened: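 Male F344 SPF rats, 5 weeks old, four per group, dosed by oral gavage once daily for 28 days with test chemical or matched-volume solvent. Liver total RNA profiled on oligo-DNA microarray. Change ≥1.5-fold or ≤1/1.5 versus vehicle counted as significant if its direction matched that seen with other carcinogens.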

liver = conditions: in vivo; cited from earlier work
rodent = conditions: in vivo; cited from earlier work

SMILES	Behavior of gene caused by administration of chemical substance, Gene No. 4846 [1]	Behavior of gene caused by administration of chemical substance, Gene No. 4218 [1]	Behavior of gene caused by administration of chemical substance, Gene No. 2026 [1]	Behavior of gene caused by administration of chemical substance, Gene No. 6182 [1]	Behavior of gene caused by administration of chemical substance, Gene No. 5600 [1]	Behavior of gene caused by administration of chemical substance, Gene No. 1494 [1]	Behavior of gene caused by administration of chemical substance, Gene No. 2045 [1]	Behavior of gene caused by administration of chemical substance, Gene No. 2203 [1]	Behavior of gene caused by administration of chemical substance, Gene No. 533 [1]	Behavior of gene caused by administration of chemical substance, Gene No. 725 [1]	Behavior of gene caused by administration of chemical substance, Gene No. 1163 [1]	Behavior of gene caused by administration of chemical substance, Gene No. 4973 [1]	Behavior of gene caused by administration of chemical substance, Gene No. 4095 [1]	Behavior of gene caused by administration of chemical substance, Gene No. 1334 [1]	Behavior of gene caused by administration of chemical substance, Gene No. 6620 [1]	Behavior of gene caused by administration of chemical substance, Gene No. 6303 [1]	Behavior of gene caused by administration of chemical substance, Gene No. 5878 [1]	Behavior of gene caused by administration of chemical substance, Gene No. 1131 [1]	Behavior of gene caused by administration of chemical substance, Gene No. 1562 [1]	Behavior of gene caused by administration of chemical substance, Gene No. 1741 [1]	other results
c1ccoc1 [TS028, Furan]	+	+	+	+	+	+	−	−	+	−	−	+	+	−	−	+	+	−	+	+	Behavior of gene caused by administration of chemical substance, Gene No. 893 [1]: −; Behavior of gene caused by administration of chemical substance, Gene No. 6026 [1]: −; Behavior of gene caused by administration of chemical substance, Gene No. 154 [1]: +; Behavior of gene caused by administration of chemical substance, Gene No. 1993 [1]: +; Behavior of gene caused by administration of chemical substance, Gene No. 813 [1]: +; Behavior of gene caused by administration of chemical substance, Gene No. 2494 [1]: −; Behavior of gene caused by administration of chemical substance, Gene No. 2546 [1]: −; Behavior of gene caused by administration of chemical substance, Gene No. 3776 [1]: +; Behavior of gene caused by administration of chemical substance, Gene No. 3929 [1]: +; Behavior of gene caused by administration of chemical substance, Gene No. 1119 [1]: +; Behavior of gene caused by administration of chemical substance, Gene No. 6742 [1]: +; Behavior of gene caused by administration of chemical substance, Gene No. 5634 [1]: +; Behavior of gene caused by administration of chemical substance, Gene No. 5726 [1]: −; Liver carcinogenicity (liver): Cr+; Carcinogenicity (rodent): C+
CC(=N)S [TS030, Thioacetoamide]	+	+	+	+	+	+	−	−	+	+	−	+	+	−	−	+	−	−	+	+	Behavior of gene caused by administration of chemical substance, Gene No. 893 [1]: +; Behavior of gene caused by administration of chemical substance, Gene No. 6026 [1]: −; Behavior of gene caused by administration of chemical substance, Gene No. 154 [1]: +; Behavior of gene caused by administration of chemical substance, Gene No. 1993 [1]: +; Behavior of gene caused by administration of chemical substance, Gene No. 813 [1]: +; Behavior of gene caused by administration of chemical substance, Gene No. 2494 [1]: +; Behavior of gene caused by administration of chemical substance, Gene No. 2546 [1]: −; Behavior of gene caused by administration of chemical substance, Gene No. 3776 [1]: +; Behavior of gene caused by administration of chemical substance, Gene No. 3929 [1]: −; Behavior of gene caused by administration of chemical substance, Gene No. 1119 [1]: −; Behavior of gene caused by administration of chemical substance, Gene No. 6742 [1]: −; Behavior of gene caused by administration of chemical substance, Gene No. 5634 [1]: −; Behavior of gene caused by administration of chemical substance, Gene No. 5726 [1]: +; Liver carcinogenicity (liver): Cr+; Carcinogenicity (rodent): C+
